Active and inactive are the calls of the source. The calls are words filed in the database; no cut-off is given here.
Assays:
[1] = Antagonist activity at cADPR binding protein in sea urchin egg homogenate assessed as inhibition of cADPR-induced Ca2+ release by Fluo-3 based fluorescence assay; format: tissue-based, Strongylocentrotus purpuratus
[2] = Agonist activity at cADPR binding protein in sea urchin egg homogenate assessed as increase in Ca2+ release by Fluo-3 based fluorescence assay; format: tissue-based, Strongylocentrotus purpuratus
[3] = test system: Strongylocentrotus purpuratus; assay: Agonist activity at cADPR binding protein in sea urchin egg homogenate assessed as increase in Ca2+ release at 100 uM by Fluo-3 based fluorescence assay relative to control; format: tissue-based
U2OS = assay: Agonist activity at cADPR binding protein in human U2OS cells expressing GCaMP6M assessed as increase in Ca2+ release at 30 uM by confocal Ca2+ imaging analysis; format: cell-based; details: filed as agonist

## [N-]=[N+]=Nc1nc2c(N)[n+]3cnc2n1[C@@H]1O[C@H](COP(=O)(O)OP(=O)(O)OC[C@H]2O[C@@H]3[C@H](O)[C@@H]2O)[C@@H](O)[C@H]1O
[1]
  IC50: 7 nM

## C#CCO[C@@H]1[C@H](O)[C@H]2COP(=O)(O)OP(=O)([O-])OC[C@H]3O[C@H]([C@H](O)[C@@H]3O)[n+]3cnc4c(ncn4[C@@H]1O2)c3N
[2]
  EC50: 8460 nM

## C#CCO[C@@H]1[C@H](O)[C@H]2COP(=O)(O)OP(=O)(O)OC[C@H]3O[C@H]([C@H](O)[C@@H]3O)[n+]3cnc4c(nc(N=[N+]=[N-])n4[C@@H]1O2)c3N
[3]
  Activity: < 10%

## Nc1c2ncn3c2nc[n+]1[C@@H]1O[C@H](COP(=O)([O-])OP(=O)(O)OC[C@H]2O[C@@H]3[C@H](O)[C@@H]2O)[C@@H](O)[C@H]1O
[2]
  EC50: 110 nM
U2OS
  Activity: Active
